Laboratory results as given in paper PMC8589421, “Impact of Type II LRRK2 inhibitors on signaling and mitophagy” (Biochemical Journal, 2021).

Columns and labels:
LRRK2 at Ser935 = assay: LRRK2 Ser935 phospho-immunoblot in wild-type MEFs; type: cell-based, mouse
Experimental: Wild-type and homozygous LRRK2 [R1441C] […] All cells were grown at 37°C, 5% (by vol) CO2 in a humidified atmosphere and regularly tested for mycoplasma contamination.
Inhibitors were dissolved in dimethyl sulfoxide (DMSO) (Sigma, #D2650). The inhibitors were diluted 1000× into cell medium. The equivalent volume of DMSO was added to the minus inhibitor controls. Experiments were performed in six-well plates, 10 cm dishes or 15 cm dishes depending on the amount of cell extract required.
Lysates were incubated on ice for 30 min and clarified by centrifugation at 20 800×g at 4°C for 20 min. Supernatants were quantified by Bradford assay (Bio-Rad Protein Assay Dye Reagent Concentrate #5000006) and samples prepared in 1× lithium dodecyl sulfate sample buffer final concentration (NuPage LDS Sample buffer 4× Invitrogen, #NP0008). When not deployed immediately, lysates were snap-frozen in liquid nitrogen and stored at −80°C until use.
Cell extracts were mixed with a quarter of a volume of NuPage LDS Sample buffer 4× Invitrogen and heated at 95°C for 5 min. […] At the end of electrophoresis, proteins were electrophoretically transferred onto the nitrocellulose membrane (GE Healthcare, Amersham Protran Supported 0.45 µm NC) at 100 V for 90 min on ice in the transfer buffer (48 mM Tris–HCl and 39 mM glycine supplemented with 20% methanol). Transferred membrane was blocked with 5% (w/v) skim milk powder dissolved in TBS-T [20 mM Tris–HCl, pH 7.5, 150 mM NaCl and 0.1% (v/v) Tween 20] at room temperature for 1 h. The membrane was typically cropped into three pieces, namely the ‘top piece’ (from the top of the membrane to 75 kDa), the ‘middle piece’ (between 75 and 30 kDa) and the ‘bottom piece’ (from 30 kDa to the bottom of the membrane). All primary antibodies were used at 1 μg/ml final concentration and incubated in TBS-T containing 5% (by mass) bovine serum albumin with exception of α-tubulin and GAPDH antibodies that were diluted 1 : 5000 and 1 : 2000, respectively. The top piece was incubated with the indicated rabbit anti-LRRK2 phosphorylation site antibody multiplexed with mouse anti-LRRK2 C-terminus total antibody. The middle piece was incubated with mouse anti-GAPDH or anti-α-tubulin antibody. The bottom pieces were incubated with indicated total and phospho-Rab antibodies. Membranes were incubated in primary antibody overnight at 4°C. Prior to secondary antibody incubation, membranes were washed three times with TBS-T for 10 min each. […] Membranes were washed with TBS-T for three times with a 10 min incubation for each wash. Protein bands were acquired via near infrared fluorescent detection using the Odyssey CLx imaging system and quantified using the Image Studio software.

[1] = tested on: basal mitophagy, LRRK2[G2019S] MEFs; assay: mito-QC basal mitophagy in LRRK2[G2019S] knock-in primary MEFs; type: cell-based, mouse; details: 24 h, 30–300 nM GZD-824, GSK3357679A 100 nM positive control
Experimental: To assess mitophagy, wild type, G2019S knock in, and LRRK2 knock out primary mouse embryonic fibroblasts (MEFs) were derived, from time-mated pregnant females at E12.5 as previously described. Briefly, cells were plated on glass coverslips and incubated with DMEM (Gibco, 11960-044) supplemented with 10% FBS, 2 mM L-Glutamine (Gibco, 2503-081), 1% non-essential amino acids (Gibco, 11140-035), 1% Antibiotics (Penicillin/Streptomycin 100 U/ml penicillin and 100 µg/ml streptomycin; Gibco), and 150 µM β-Mercaptoethanol (Gibco, 21985-023) at 37°C under a humidified 5% CO2 atmosphere. […] GSK3357679A 100 nM (Ding et al., in prep) was used as a positive control. At the end of the treatment, MEFs were briefly washed twice in DPBS (Gibco, 14190-094), and fixed in 3.7% Paraformaldehyde pH 7.00 (Sigma, P6148), 200 mM HEPES, for 20 min. Cells were then washed two times with DMEM, 10 mM HEPES, and then incubated for 10 min with DMEM, 10 mM HEPES. […] Images were acquired using a Nikon Eclipse Ti-S fluorescence microscope with a 63× objective. Images were analyzed using the mito-QC counter as previously described. Experiments were performed in 3–4 independent experiments and data was analyzed with a one-way ANOVA followed by a Dunnett's multiple comparison test using the GraphPad Prism software (version 8.4.3 (686)).

[2] = tested on: mouse embryonic fibroblast cells (MEFs); assay: Cell morphology and attachment of MEFs; type: cell-based

## Cc1ccc(C(=O)Nc2ccc(CN3CCN(C)CC3)c(C(F)(F)F)c2)cc1C#Cc1cnc2[nH]ncc2c1 [GZD-824]
LRRK2 at Ser935; MEFs, 2 h dose response
  effect on LRRK2 Ser935 phosphorylation: did not induce dephosphorylation
LRRK2 at Ser935; wild-type MEFs, 1 μM, 24 h
  Ser935 phosphorylation over 24 h time course: unaffected
LRRK2 at Ser935; wild-type MEFs, 10 μM, 2 h, Supplemental Figure S2A
  effect on LRRK2 Ser935 phosphorylation: did not reduce LRRK2 phosphorylation at Ser935 significantly
[1]
  stimulation of basal mitophagy: ~2 fold
[2]
  concentration that impacted cell morphology and attachment: ≥ 10 μM
